The text below walks through data of patent publication US20240350471A1, “PHARMACEUTICAL COMPOSITION FOR PREVENTING OR TREATING ATTENTION DEFICIT/HYPERACTIVITY DISORDER” (DANKOOK UNIVERSITY CHEONAN CAMPUS INDUSTRY ACADEMIC …, priority 2021, published 2024).

The assay deals with Git1 hetero type (+/−) mice. The assay is described as follows: Open field test in Git1 hetero type (+/−) ADHD model mice treated with SNAP5114. Type of assay: in vivo. The following applies: SNAP5114 I.P. 50 ug/kg for 7 days prior to the experiment, movement measured for 10 minutes. On the procedure:
Git1 gene-deficient hetero (+/−) mice were prepared as an animal model with attention deficit/hyperactivity disorder (ADHD). Wild-type mice and GIT1 gene-deficient knock-out type (KO type) mice were crossed to obtain GIT1 gene-deficient hetero type. After making mating cages for among the obtained hetero type mice, genotyping was performed to isolate the hetero type mice. SNAP5114 was administered intraperitoneally (I.P.) at a concentration of 50 ug/kg for 7 days prior to the experiment. SNAP5114 was dissolved in 10% DMSO and then used by dissolving in 90% saline just before the experiment. Open field tests were performed to evaluate behavioral morphology and, in order to determine the characteristics of tonic GABA in the striatum, a representative brain region that controls hyperactivity, immunohistochemistry and electrophysiological measurements (patch clamp recording) were performed. Considering that changes in the amount of GABA associated with astrocytes in ADHD model mice are related to the transport protein that transports GABA into the astrocytes, behavioral experiments were conducted by treating the SNAP5114, an inhibitor of GABA transporter-3 (GAT-3). […] The mice were placed in the center of an open field test cage (30×30×30 cm), and its movement was measured for 10 minutes. The measured videos were analyzed for locomotor activity through ANYmaze.

Structures are written as SMILES.

Consider `COc1ccc(C(OCCN2CCC[C@H](C(=O)O)C2)(c2ccc(OC)cc2)c2ccc(OC)cc2)cc1` [SNAP5114, (S)-1-(2-(tris(4-methoxyphenyl)methoxy)ethyl)piperidine-3-carboxylic acid], for which the “hyperactivity (distance of movement, locomotor activity) in open field test” value was “hyperactivity was found to be ameliorated to the level of WT”.
